Laboratory results taken from patent US20170275706A1, “ALK AND ROS KINASE IN CANCER” (priority 2010, published 2017).

Tests used:
[1] = test system: BaF3 expressing FIG-ROS(S); assay: MTS cell growth assay, BaF3 cells expressing FIG-ROS(S); type: cell-based; conditions: FIG. 6; 0-1000 nM TAE-684, 72 hours
Procedure: (§1) BaF3 and Karpas 299 cells were obtained from DSMZ (Deutsche Sammlung von Mikroorganismen und Zellkulturen GmbH, Germany). BaF3 cells, which need interleukin-3 to survive, were maintained at 37° C. in RPMI-1640 medium (Invitrogen) with 10% fetal bovine serum (FBS) (Sigma) and 1.0 ng/ml murine IL-3 (R&D Systems). Karpas 299 cells (a lymphoma cell line) were grown in RPMI-1640 with 10% FBS.
(§2) BaF3 cells were transduced with retrovirus encoding FIG-ROS(S), FIG-ROS(L), or FLT-3ITD (the Internal tandem duplication mutation in FLT3 causes AML leukemia), and selected for IL3 independent growth. Karpas 299 cells, which express NPM-ALK, was used as a positive control. Retroviruses were generated as previously described (see PCT Publication No. WO 2010/093928, incorporated by reference).
(§3) A MTS assay was performed using the CellTiter 96 Aqueous One Solution Reagent (Promega, Catalog No G3582). […] After 72 hours, 20 μl of the CellTiter 96 Aqueous One Solution Reagent was added into each well of a 96 well assay plate (flat bottom), and then 100 μl of cells grown with or without treatment. Media-only wells were used as controls. The 96 well plate was incubated for 1-4 hours at 37° C., and then viable cells were counted by reading the absorbance at 490 nm using a 96 well plate reader.

FIG-ROS(L) = FIG-ROS(L) (Homo sapiens, UniProt P08922); assay: Western blotting, phosphorylation of FIG-ROS(L) in BaF3 cells; type: cell-based
Source text: (§4) All antibodies were from Cell Signaling Technology, Inc. (Danvers, Mass.)
(§5) Since ROS, ALK, LTK, InsR, and IGFIR belong to the same family of tyrosine kinases, they may share similar structure in the kinase domain.

[2] = test system: BaF3 cells expressing FIG-ROS(S); assay: Cleaved caspase-3 flow cytometry apoptosis assay, BaF3 FIG-ROS(S); type: cell-based; conditions: FIG. 7; presence of TAE-684
Source text: (§6) The mechanism of death of the BaF3 and Karpas 299 cells was next assessed by measuring the percentage of cleaved-caspase 3 positive cells by flow cytometry assay using cleaved caspase-3 as a marker for apoptosis.

Karpas 299 cells [3] = assay: Cleaved caspase-3 flow cytometry apoptosis assay, Karpas 299; type: cell-based; conditions: FIG. 7; presence of TAE-684
Source text: as §6

ERK, STAT3 = assay: Western blotting, ERK/STAT3 phosphorylation in Karpas 299 cells; type: cell-based
Source text: as §4, §5

FIG-ROS(S) = biological target: T1, FIG-ROS(S) (Homo sapiens, UniProt P08922); assay: Western blotting, phosphorylation of FIG-ROS(S) in BaF3 cells; type: cell-based
T1 construct: expressed in transfected cells; host or cells: BaF3 cells, retroviral transduction
Source text: as §4, §5

[4] = test system: BaF3 expressing FIG-ROS(L); assay: MTS cell growth assay, BaF3 cells expressing FIG-ROS(L); type: cell-based; conditions: FIG. 6; 0-1000 nM TAE-684, 72 hours
Procedure: as §1, §2, §3

STAT3, AKT, ERK, Shp2 [5] = assay: Western blotting, downstream signaling phosphorylation in FIG-ROS(S) and FIG-ROS(L) expressing BaF3 cells; type: cell-based
Source text: as §4, §5

[6] = test system: BaF3 cells expressing FIG-ROS(L); assay: Cleaved caspase-3 flow cytometry apoptosis assay, BaF3 FIG-ROS(L); type: cell-based; conditions: FIG. 7; presence of TAE-684
Source text: as §6

STAT3, AKT, ERK, Shp2 [7] = assay: Western blotting, downstream signaling phosphorylation in BaF3 cells transduced with FLT-3ITD; type: cell-based; conditions: BaF3 FLT-3ITD
Source text: as §4, §5

BaF3 expressing FLT3ITD = conditions: FIG. 6; 0-1000 nM TAE-684, 72 hours
Procedure: as §1, §2, §3

Karpas 299 cells [8] = conditions: FIG. 6; 0-1000 nM TAE-684, 72 hours
Procedure: as §1, §2, §3

[9] = FIG. 8, 0, 10, 50, or 100 nM TAE-684 for three hours
[10] = FIG. 10, 0, 0.1, 0.3, or 1.0 uM crizotinib for three hours

Q: Which cellular growth response [1] does the source give for `COc1cc(N2CCC(N3CCN(C)CC3)CC2)ccc1Nc1ncc(Cl)c(Nc2ccccc2S(=O)(=O)C(C)C)n1` [TAE-684] here?
A: stopped growing

Q: What about the “phosphorylation of FIG-ROS(L)” value (FIG-ROS(L); [9]) of the same compound?
A: inhibited

Q: And the “mechanism of death (cleaved-caspase 3 positive cells)” value (from here on “mechanism of death”) [2]?
A: die by apoptosis

Q: And the “mechanism of death” value (Karpas 299 cells [3])?
A: did not die by apoptosis

Q: And the ERK phosphorylation (ERK, STAT3; [9])?
A: inhibited

Q: What about the “phosphorylation of FIG-ROS(S)” value (FIG-ROS(S); [9]) of the same compound?
A: inhibited

Q: And the cellular growth response [4]?
A: stopped growing

Q: And the “phosphorylation of STAT3, AKT, and ERK, and Shp2” value (STAT3, AKT, ERK, Shp2 [5]; [9])?
A: inhibited

Q: And the “mechanism of death” value [6]?
A: die by apoptosis

Q: And the “phosphorylation of STAT3, AKT, and ERK, and Shp2” value (STAT3, AKT, ERK, Shp2 [7]; [9])?
A: not affected

Q: What about the cellular growth response (BaF3 expressing FLT3ITD) of the same compound?
A: not susceptible

Q: And the cellular growth response (Karpas 299 cells [8])?
A: stopped growing

Q: What does the source list for `C[C@@H](Oc1cc(-c2cnn(C3CCNCC3)c2)cnc1N)c1c(Cl)ccc(F)c1Cl` [crizotinib]?
A: phosphorylation of FIG-ROS(L) (FIG-ROS(L); [10]): inhibited; STAT3 and ERK phosphorylation (ERK, STAT3; [10]): inhibited; phosphorylation of FIG-ROS(S) (FIG-ROS(S); [10]): inhibited; phosphorylation of STAT3 and ERK (STAT3, AKT, ERK, Shp2 [5]; [10]): inhibited; phosphorylation of STAT3 and ERK (STAT3, AKT, ERK, Shp2 [7]; [10]): not affected
